The record followed here is PubChem BioAssay AID256 (DTP/NCI, 2004).

Where “and” joins values, the source holds several entries; their conditions need not be identical. Equal values may be shown once. Toxic doses and inconclusive results are not listed.

In the test the test system is CD2F1 mice, L1210 leukemia ip, survival T/C. Nature of the test: NCI In Vivo Anticancer Drug Screen. Data for tumor model L1210 Leukemia (intraperitoneal) in CD2F1 (CDF1) mice. To be noted: higher = longer survival. The gist of the method:
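Antitumor effect is scored in animals hosting a serially transplanted tumor. Values compare compound-dosed animals against vehicle-only controls as a simple quotient.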

Setting [1] is: endpoint: mean survival time, dose: 100.0 mg/kg/injection, schedule: Q04DX002 (ip), vehicle: saline with Tween-80.
Where [2] appears, read: endpoint: mean survival time, dose: 100.0 mg/kg/injection, schedule: Q01DX001 (ip), vehicle: saline with Tween-80.
Where [3] appears, read: endpoint: mean survival time, dose: 200.0 mg/kg/injection, schedule: Q01DX001 (ip), vehicle: saline with Tween-80.
Where [4] appears, read: endpoint: mean survival time, dose: 400.0 mg/kg/injection, schedule: Q01DX001 (ip), vehicle: saline with Tween-80.
Setting [5] is: endpoint: mean survival time, dose: 100.0 mg/kg/injection, schedule: Q01DX009 (ip), vehicle: other.
Setting [6] is: endpoint: mean survival time, dose: 200.0 mg/kg/injection, schedule: Q01DX009 (ip), vehicle: other.
The mark [7] stands for this setting: endpoint: mean survival time, dose: 400.0 mg/kg/injection, schedule: Q01DX009 (ip), vehicle: other.
[8] abbreviates: endpoint: mean survival time, dose: 100.0 mg/kg/injection, schedule: Q04DX003 (ip), vehicle: saline with Tween-80.
Setting [9] is: endpoint: mean survival time, dose: 200.0 mg/kg/injection, schedule: Q04DX003 (ip), vehicle: saline with Tween-80.
[10] abbreviates: endpoint: mean survival time, dose: 400.0 mg/kg/injection, schedule: Q04DX003 (ip), vehicle: saline with Tween-80.

As for `C1CC2(CCC13CO3)CO2` (centres undefined), the T/C runs as follows: (endpoint: mean survival time, dose: 25.0 mg/kg/injection, schedule: Q04DX002 (ip), vehicle: saline with Tween-80) 91 % of control; (endpoint: mean survival time, dose: 50.0 mg/kg/injection, schedule: Q04DX002 (ip), vehicle: saline with Tween-80) 91 % of control and 103 % of control; (endpoint: mean survival time, dose: 100.0 mg/kg/injection, schedule: Q04DX002 (ip), vehicle: Klucel (hydroxypropylcellulose) (HPC)) 102 % of control; under setting [1], 91 % of control and 107 % of control; (endpoint: mean survival time, dose: 200.0 mg/kg/injection, schedule: Q04DX002 (ip), vehicle: Klucel (hydroxypropylcellulose) (HPC)) 112 % of control; (endpoint: mean survival time, dose: 200.0 mg/kg/injection, schedule: Q04DX002 (ip), vehicle: saline with Tween-80) 100 % of control and 119 % of control. Also, the T/C is, setting by setting: (endpoint: mean survival time, dose: 400.0 mg/kg/injection, schedule: Q04DX002 (ip), vehicle: Klucel (hydroxypropylcellulose) (HPC)) 119 % of control; (endpoint: mean survival time, dose: 600.0 mg/kg/injection, schedule: Q04DX002 (ip), vehicle: Klucel (hydroxypropylcellulose) (HPC)) 119 % of control; (endpoint: median survival time, dose: 50.0 mg/kg/injection, schedule: Q04DX002 (ip), vehicle: saline with Tween-80) 102 % of control; (endpoint: median survival time, dose: 100.0 mg/kg/injection, schedule: Q04DX002 (ip), vehicle: saline with Tween-80) 105 % of control; (endpoint: median survival time, dose: 200.0 mg/kg/injection, schedule: Q04DX002 (ip), vehicle: saline with Tween-80) 105 % of control; (endpoint: median survival time, dose: 400.0 mg/kg/injection, schedule: Q04DX002 (ip), vehicle: saline with Tween-80) 109 % of control. In addition, the T/C (endpoint: median survival time, dose: 800.0 mg/kg/injection, schedule: Q04DX002 (ip), vehicle: saline with Tween-80) is 114 % of control.

As to `O=[N+]([O-])c1ccc(NCS(=O)(=O)O)cc1`, the T/C was 91 % of control under setting [2], 94 % of control under setting [3] and 87 % of control under setting [4].

For `CC(=O)OC1C(CNC(=O)N(C)N=O)OC(OC2(CNC(=O)N(C)N=O)OC(CNC(=O)N(C)N=O)C(OC(C)=O)C2OC(C)=O)C(OC(C)=O)C1OC(C)=O` (centres undefined), the T/C by setting is: (endpoint: mean survival time, dose: 12.5 mg/kg/injection, schedule: Q01DX009 (ip), vehicle: other) 93 % of control; (endpoint: mean survival time, dose: 25.0 mg/kg/injection, schedule: Q01DX009 (ip), vehicle: other) 94 % of control; (endpoint: mean survival time, dose: 50.0 mg/kg/injection, schedule: Q01DX009 (ip), vehicle: other) 104 % of control; under setting [5], 102 % of control; under setting [6], 120 % of control.

As to `On1ccnc2nncc1-2`, the T/C was 104 % of control (endpoint: mean survival time, dose: 11.3 mg/kg/injection, schedule: Q01DX005 (ip), vehicle: other); 104 % of control (endpoint: mean survival time, dose: 22.5 mg/kg/injection, schedule: Q01DX005 (ip), vehicle: other); 101 % of control (endpoint: mean survival time, dose: 45.0 mg/kg/injection, schedule: Q01DX005 (ip), vehicle: other); 97 % of control (endpoint: mean survival time, dose: 90.0 mg/kg/injection, schedule: Q01DX005 (ip), vehicle: other); 93 % of control (endpoint: mean survival time, dose: 180.0 mg/kg/injection, schedule: Q01DX005 (ip), vehicle: other); 102 % of control (endpoint: mean survival time, dose: 200.0 mg/kg/injection, schedule: Q01DX005 (ip), vehicle: other). Under “endpoint: mean survival time, dose: 400.0 mg/kg/injection, schedule: Q01DX005 (ip), vehicle: other”, the T/C was 106 % of control.

For the compound `CC(=O)O.CC(=O)O.CC(=O)O.[O]=[U]=[O]`, the T/C is 98 % of control (endpoint: mean survival time, dose: 12.5 mg/kg/injection, schedule: Q01DX009 (ip), vehicle: saline); 98 % of control (endpoint: mean survival time, dose: 25.0 mg/kg/injection, schedule: Q01DX009 (ip), vehicle: saline); 90 % of control (endpoint: mean survival time, dose: 50.0 mg/kg/injection, schedule: Q01DX009 (ip), vehicle: saline).

Turning to `CCOCc1cccc2ccccc12`, the T/C by setting is: (endpoint: mean survival time, dose: 100.0 mg/kg/injection, schedule: Q01DX009 (ip), vehicle: saline with Tween-80) 98 % of control; (endpoint: mean survival time, dose: 200.0 mg/kg/injection, schedule: Q01DX009 (ip), vehicle: saline with Tween-80) 102 % of control; (endpoint: mean survival time, dose: 400.0 mg/kg/injection, schedule: Q01DX009 (ip), vehicle: saline with Tween-80) 94 % of control.

As to `O=C1CC2(C(=O)N1CN1CCCCC1)c1ccccc1-c1ccccc12`, the T/C runs as follows: (endpoint: mean survival time, dose: 12.5 mg/kg/injection, schedule: Q01DX009 (ip), vehicle: Klucel (hydroxypropylcellulose) (HPC)) 94 % of control and 102 % of control; (endpoint: mean survival time, dose: 25.0 mg/kg/injection, schedule: Q01DX009 (ip), vehicle: Klucel (hydroxypropylcellulose) (HPC)) 91 % of control and 105 % of control; (endpoint: mean survival time, dose: 50.0 mg/kg/injection, schedule: Q01DX009 (ip), vehicle: Klucel (hydroxypropylcellulose) (HPC)) 98 % of control and 100 % of control; (endpoint: mean survival time, dose: 100.0 mg/kg/injection, schedule: Q01DX009 (ip), vehicle: Klucel (hydroxypropylcellulose) (HPC)) 94 % of control and 102 % of control; (endpoint: mean survival time, dose: 200.0 mg/kg/injection, schedule: Q01DX009 (ip), vehicle: Klucel (hydroxypropylcellulose) (HPC)) 100 % of control; (endpoint: mean survival time, dose: 400.0 mg/kg/injection, schedule: Q01DX009 (ip), vehicle: Klucel (hydroxypropylcellulose) (HPC)) 158 % of control.

Regarding `NNC(=O)OCc1ccccc1`, the T/C under setting [1] is 100 % of control.

Consider `NC(=O)c1csc(COCCO)n1`, for which the T/C runs as follows: (endpoint: median survival time, dose: 40.63 mg/kg/injection, schedule: Q01DX005 (ip), vehicle: water) 102 % of control; (endpoint: median survival time, dose: 81.25 mg/kg/injection, schedule: Q01DX005 (ip), vehicle: water) 99 % of control; (endpoint: median survival time, dose: 162.5 mg/kg/injection, schedule: Q01DX005 (ip), vehicle: water) 103 % of control; (endpoint: median survival time, dose: 325.0 mg/kg/injection, schedule: Q01DX005 (ip), vehicle: water) 96 % of control.

For the compound `COc1cc2c(c(OC)c1OC)-c1c(cc3c(c1OC)OCO3)CC(C)C(C)(O)C2OC(=O)c1ccccc1` (centres undefined), the T/C runs as follows: (endpoint: median survival time, dose: 25.0 mg/kg/injection, schedule: Q01DX009 (ip), vehicle: saline + Tween-80 + alcohol) 100 % of control; (endpoint: median survival time, dose: 50.0 mg/kg/injection, schedule: Q01DX009 (ip), vehicle: saline + Tween-80 + alcohol) 102 % of control; (endpoint: median survival time, dose: 100.0 mg/kg/injection, schedule: Q01DX009 (ip), vehicle: saline + Tween-80 + alcohol) 107 % of control; (endpoint: median survival time, dose: 200.0 mg/kg/injection, schedule: Q01DX009 (ip), vehicle: saline + Tween-80 + alcohol) 102 % of control; (endpoint: median survival time, dose: 400.0 mg/kg/injection, schedule: Q01DX009 (ip), vehicle: saline + Tween-80 + alcohol) 98 % of control.

Turning to `CCCCCCC(O)CCCCCC`, the T/C under setting [5] was 96 % of control; the T/C (endpoint: mean survival time, dose: 100.0 mg/kg/injection, schedule: Q04DX003 (ip), vehicle: other) was 100 % of control; the T/C under setting [6] is 98 % of control; the T/C (endpoint: mean survival time, dose: 200.0 mg/kg/injection, schedule: Q04DX003 (ip), vehicle: other) was 97 % of control; the T/C under setting [7] was 98 % of control; the T/C (endpoint: mean survival time, dose: 400.0 mg/kg/injection, schedule: Q04DX003 (ip), vehicle: other) is 95 % of control.

For `Cc1ccc(S(=O)(=O)OCC2CC3CCC2C3)cc1` (centres undefined), the T/C runs as follows: under setting [5], 102 % of control; under setting [6], 102 % of control; under setting [7], 93 % of control.

`CS(=O)(=O)OC1CCCSc2ccccc21` (centres undefined): the T/C is 103 % of control (endpoint: mean survival time, dose: 100.0 mg/kg/injection, schedule: Q01DX001 (ip), vehicle: carboxymethylcellulose (CMC)); 97 % of control (endpoint: mean survival time, dose: 200.0 mg/kg/injection, schedule: Q01DX001 (ip), vehicle: carboxymethylcellulose (CMC)); 97 % of control (endpoint: mean survival time, dose: 400.0 mg/kg/injection, schedule: Q01DX001 (ip), vehicle: carboxymethylcellulose (CMC)).

Regarding `Nc1cccc(S(=O)(=O)NNc2cc(Cl)ccc2Cl)c1`, the T/C is 102 % of control under setting [8], 96 % of control under setting [9] and 95 % of control under setting [10].

In the case of `CSc1ccccc1C(=O)OC(C)(C)C`, the T/C by setting is: under setting [2], 96 % of control; under setting [3], 103 % of control; under setting [4], 103 % of control.

For `NC(=O)c1c(Br)n(C2OC(CO)C(O)C2O)c2ncnc(N)c12` (centres undefined), the T/C (endpoint: mean survival time, dose: 50.0 mg/kg/injection, schedule: Q01DX009 (ip), vehicle: saline with Tween-80) was 105 % of control.

Take `COC(=O)[CH](C[N+](=O)[O-])[Hg][Cl]` (centres undefined): the T/C was 97 % of control (endpoint: mean survival time, dose: 6.25 mg/kg/injection, schedule: Q01DX009 (ip), vehicle: saline with Tween-80) and 94 % of control (endpoint: mean survival time, dose: 12.5 mg/kg/injection, schedule: Q04DX003 (ip), vehicle: saline).

Turning to `O=C(C/C(=N\N(C(=O)c1ccccc1)c1ccccc1)c1ccccc1)c1ccccc1`, the T/C by setting is: under setting [8], 92 % of control; under setting [9], 97 % of control; under setting [10], 100 % of control.
